Reference: patent EP4610257A1, “CRYSTAL FORM OF ISOQUINOLINONE COMPOUND AND PREPARATION METHOD THEREFOR” (Jiangsu Hengrui Pharmaceuticals Co., Ltd., priority 2022, dated 2024)

Assays:
in vivo = test: in vivo; set-up: species or system ICR mice; conditions: both sexes, ICR, mouse, inhaled or intranasal
Experimental: Test Example 3: PK Assay by Intratracheal Administration
Time points for plasma collection were: 0.25 h, 0.5 h, 1 h, 2 h, 4 h, 8 h, 12 h, and 24 h. […] Time points for lung tissue collection were: 0.5 h, 2 h, 8 h, and 24 h.
30.0 µL of plasma sample was added to a 1.5 mL centrifuge tube, and 150 µL of an internal standard working solution was added. […] 70.0 µL of the supernatant was added to a 96-well plate, and 70.0 µL of deionized water was added. The resulting mixture was well shaken, and 2.00 µL of the mixture was taken for LC-MS/MS analysis.
An appropriate amount of the lung tissue sample was accurately weighed out and placed into a homogenate tube, and acetonitrile was added at a volume equivalent to 5 times the weight of the sample. The mixture was homogenized and ultrasonicated for 5 min. 20.0 µL of the lung tissue homogenate sample was taken, and 30.0 µL of an internal standard working solution and 200 µL of acetonitrile were added. […] 100 µL of the supernatant was added to a 96-well plate, and 100 µL of deionized water was added.

PDE4B1 = PDE4B1 (Homo sapiens, UniProt Q07343); test: In vitro PDE4B enzyme activity assay, IMAP FP-based; conditions: for inhibition at 2 µM: read-out: Inhibition rate (%) PDE4B1(2000 nM)
PDE3A = PDE3A (Homo sapiens, UniProt Q14432); test: In vitro PDE3A enzyme activity assay, IMAP FP-based
Sequence of PDE3A (Q14432 669-1141 limits assumed): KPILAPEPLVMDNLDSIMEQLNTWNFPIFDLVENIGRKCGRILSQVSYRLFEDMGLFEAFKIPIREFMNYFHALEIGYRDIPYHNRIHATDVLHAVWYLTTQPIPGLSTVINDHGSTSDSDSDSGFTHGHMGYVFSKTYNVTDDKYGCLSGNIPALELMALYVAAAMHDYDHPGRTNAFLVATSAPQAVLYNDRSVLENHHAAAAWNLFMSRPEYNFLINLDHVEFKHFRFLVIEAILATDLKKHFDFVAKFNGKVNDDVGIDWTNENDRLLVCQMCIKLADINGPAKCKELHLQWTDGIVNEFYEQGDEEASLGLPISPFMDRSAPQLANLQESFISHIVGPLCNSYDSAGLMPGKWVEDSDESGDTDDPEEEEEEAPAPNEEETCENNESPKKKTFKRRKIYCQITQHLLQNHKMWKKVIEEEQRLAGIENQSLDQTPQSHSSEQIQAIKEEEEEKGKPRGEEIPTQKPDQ

Sequence of PDE4B1 (Q07343 whole entry): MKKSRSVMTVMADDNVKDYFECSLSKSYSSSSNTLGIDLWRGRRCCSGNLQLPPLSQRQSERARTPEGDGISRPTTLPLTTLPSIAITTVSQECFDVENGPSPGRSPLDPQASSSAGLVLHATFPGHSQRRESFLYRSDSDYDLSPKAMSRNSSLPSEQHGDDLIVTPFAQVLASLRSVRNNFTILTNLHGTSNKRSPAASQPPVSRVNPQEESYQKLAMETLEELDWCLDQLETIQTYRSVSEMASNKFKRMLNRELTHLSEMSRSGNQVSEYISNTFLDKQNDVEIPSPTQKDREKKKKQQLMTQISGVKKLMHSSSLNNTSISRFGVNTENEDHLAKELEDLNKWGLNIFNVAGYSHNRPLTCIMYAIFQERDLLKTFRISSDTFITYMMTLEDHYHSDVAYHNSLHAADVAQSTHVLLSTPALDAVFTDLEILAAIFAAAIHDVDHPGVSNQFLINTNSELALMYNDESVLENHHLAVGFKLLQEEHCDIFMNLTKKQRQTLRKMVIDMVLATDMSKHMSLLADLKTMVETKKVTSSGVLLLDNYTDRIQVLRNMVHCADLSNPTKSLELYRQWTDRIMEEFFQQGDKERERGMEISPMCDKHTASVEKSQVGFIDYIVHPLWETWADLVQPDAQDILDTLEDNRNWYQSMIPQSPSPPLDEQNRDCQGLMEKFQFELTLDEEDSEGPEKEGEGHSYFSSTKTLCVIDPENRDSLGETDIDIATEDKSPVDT

| Compound | half-life (in vivo) [min] | Tmax (in vivo; Plasma Tmax (h)) [min] | IC50 (PDE4B1) [nM] | inhibition at 2 µM (PDE4B1) [%] | IC50 (PDE3A) [nM] | inhibition at 0.5 µM (PDE3A; read-out: Inhibition rate (%) PDE3A (500 nM)) [%] |
| --- | --- | --- | --- | --- | --- | --- |
| COc1cc2c(cc1OC)-c1cc(=Nc3c(C)cc(C)cc3C)n(CCNC(N)=O)c(=O)n1CC2 [RPL554, 9,10-dimethoxy-2-(2,4,6-trimethylphenylimino)-3-(N-carbamoyl-2-aminoethyl)-3,4,6,7-tetrahydro-2H-pyrimido[6,1-a]isoquinolin-4-one] | 52.8 | 15 | 110 | 64.2 | 0.25 | 99.2 |
| CCOc1cc2c(cc1OC)-c1cc(=Nc3c(C)cc(C)cc3C)n(CCN3CCOC3=O)c(=O)n1CC2 [WX001] | – | – | 876 | 66.3 | – | – |
